Reference: US6124328A, “Methods and compositions for stimulating neurite growth” (Vertex Pharmaceuticals Incorporated, priority 1997, dated 2000)

Columns and labels:
[1] = system: inositol 1,4,5-triphosphate receptor (IP3 R); conditions: cited from earlier work
ryanodine receptor (RyR) = conditions: cited from earlier work
[2] = system: dorsal root ganglia (sensory ganglia); conditions: Lyons et al., cited from earlier work
[3] = system: PC12 rat pheochromocytoma cells; conditions: Lyons et al., cited from earlier work
FKBP12 = FKBP12 (Homo sapiens, UniProt P62942); experiment: FKBP12 Binding Assay: inhibition of FKBP rotomase activity (cis-N-succinyl-Ala-Ala-Pro-Phe-p-nitroanilide / chymotrypsin), apparent Ki; assay type: biochemical; conditions: Table 2, formula II', compound 0.1 nM-10 μM
From the text: Preferably, the assay measures inhibition of FKBP12 rotomase activity. Such an assay has also been described by M. W. Harding et al., supra and by J. J. Siekierka et al., supra. In this assay the isomerization of an artificial substrate--N-succinyl-Ala-Ala-Pro-Phe-p-nitroanilide--is followed spectrophotometrically. The assay includes the cis form of the substrate, FKBP12, the inhibitor and chymotrypsin. Chymotrypsin is able to cleave p-nitroanilide from the trans form of the substrate, but not the cis form. Release of p-nitroanilide is measured.
In this assay various quantities of FKBP12 binding compound (0.1 nM-10 μM) were added to cis-N-succinyl-Ala-Ala-Pro-Phe-p-nitroanilide in the presence of FKBP12 and chymotrypsin. FKBP12 converts the cis form of the substrate to the trans form. This allows chymotrypsin to cleave p-nitroanilide from the substrate. Release of p-nitroanilide was measured spectrophotometrically.

Sequence of FKBP12 (P62942 whole entry): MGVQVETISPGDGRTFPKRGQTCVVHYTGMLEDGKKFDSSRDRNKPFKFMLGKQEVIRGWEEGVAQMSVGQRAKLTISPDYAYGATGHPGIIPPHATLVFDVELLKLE

Row | Ki (FKBP12) | SMILES | also measured
1 | – | C=CC[C@@H]1/C=C(\C)C[C@H](C)C[C@H](OC)[C@H]2O[C@@](O)(C(=O)C(=O)N3CCCC[C@H]3C(=O)O[C@H](/C(C)=C/[C@@H]3CC[C@@H](O)[C@H](OC)C3)[C@H](C)[C@@H](O)CC1=O)[C@H](C)C[C@@H]2OC [FK-506] | dissociating FKBP12 from the receptor [1]: capable of dissociating FKBP12 from the receptor; dissociating FKBP12 from the receptor (ryanodine receptor (RyR)): capable of dissociating FKBP12 from the receptor; neurotrophic effects in sensory ganglia [2]: demonstrated similar neurotrophic effects; neurite outgrowth (synergy with NGF) ([3]; with NGF, rat pheochromocytoma cell line): acts synergistically with nerve growth factor (NGF) in stimulating neurite outgrowth
2 | 24 nM | COc1cc(C(=O)C(=O)N2CCCC[C@H]2C(=O)OC(CCCc2ccccc2)c2cccc(C(=O)c3cccnc3)c2)cc(OC)c1OC (some centres unmarked) [compound 91] | –
3 | 9 nM | COc1cc(C(=O)C(=O)N2CCCC[C@H]2C(=O)OC(CCCc2ccccc2)c2cccc(C(=O)c3cccnc3)c2)cc(OC)c1OC (some centres unmarked) [compound 92] | –
4 | 7.5 nM | COc1ccc(C(=O)C(=O)N2CCCC[C@H]2C(=O)OC(CCCc2ccccc2)c2cccc(OCc3ccncc3)c2)cc1OC (some centres unmarked) [compound 93] | –
5 | 25 nM | COc1cc(C(=O)C(=O)N2CCCC[C@H]2C(=O)OC(CCCc2ccccc2)c2cccc(C(=O)c3ccncc3)c2)cc(OC)c1OCc1ccccc1 (some centres unmarked) [compound 94] | –
6 | 3.6 nM | C=CCOc1c(OC)cc(C(=O)C(=O)N2CCCC[C@H]2C(=O)OC(CCCc2ccccc2)c2cccc(C(=O)c3ccncc3)c2)cc1OC (some centres unmarked) [compound 95] | –
7 | 25 nM | COc1ccc(C(=O)C(=O)N2CCCC[C@H]2C(=O)OC(CCCc2ccccc2)c2cccc(C(=O)c3ccncc3)c2)cc1OCc1ccccc1 (some centres unmarked) [compound 96] | –
8 | 17 nM | C=CCOc1cc(C(=O)C(=O)N2CCCC[C@H]2C(=O)OC(CCCc2ccccc2)c2cccc(C(=O)c3ccncc3)c2)ccc1OC (some centres unmarked) [compound 97] | –
9 | 380 nM | COc1ccc(C(=O)C(=O)N2CCCC[C@H]2C(=O)OC(CCCc2ccccc2)c2cccc(C(=O)c3ccncc3)c2)cc1C/C=C/c1ccccc1 (some centres unmarked) [compound 98] | –
10 | 15000 nM | COc1cc(C(=O)C(=O)N2CCCC[C@H]2C(=O)OC(CCCc2ccccc2)c2ccc(C(=O)c3ccncc3)cc2)cc(OC)c1OCc1ccccc1 (some centres unmarked) [compound 99] | –
11 | > 5000 nM | COc1ccc(C(=O)C(=O)N2CCCC[C@H]2C(=O)OC(CCCc2ccccc2)c2ccc(C(=O)c3ccncc3)cc2)cc1OCc1ccccc1 (some centres unmarked) [compound 100] | –
12 | 24000 nM | COc1ccc(C(=O)C(=O)N2CCCC[C@H]2C(=O)OC(CCCc2ccccc2)c2ccccc2)cc1OCc1ccccc1 (some centres unmarked) [compound 103] | –
13 | 1700 nM | COc1cc(C(=O)C(=O)N2CCCC[C@H]2C(=O)OC(CCCc2ccccc2)c2ccccc2)cc(OC)c1OCc1ccccc1 (some centres unmarked) [compound 104] | –
14 | 340 nM | CC(C)(C)C(=O)C(=O)N1CCC[C@H]1C(=O)OC(CCCc1ccccc1)CCCc1cccnc1 (some centres unmarked) [compound 105] | –
15 | 3.7 nM | COc1cc(C(=O)C(=O)N2CCCC[C@H]2C(=O)OC(CCCc2cccnc2)CCCc2cccnc2)cc(OC)c1OC [compound 106] | –
16 | 75000 nM | COc1cc(C(=O)C(=O)N2CCC[C@H]2C(=O)OC(COCc2ccccc2)COCc2ccccc2)cc(OC)c1OC [compound 107] | –
17 | 89 nM | COc1cc(C(=O)C(=O)N2CCC[C@H]2C(=O)OC(CCCc2cccnc2)CCCc2cccnc2)cc(OC)c1OC [compound 108] | –
18 | 1500 nM | CC(C)C(=O)C(=O)N1CCCC[C@H]1C(=O)OC(CCCc1cccnc1)CCCc1cccnc1 [compound 109] | –
19 | 0.39 nM | COc1cc(C(=O)C(=O)N2CCCC[C@H]2C(=O)OC(c2cc(OCc3ccncc3)c(OCc3ccncc3)c(OCc3ccncc3)c2)C(C)C)cc(OC)c1OC (some centres unmarked) [compound 115] | –
20 | 13 nM | COc1cc(C(=O)C(=O)N2CCCC[C@H]2C(=O)OC(c2cc(OCc3ccncc3)c(OCc3ccncc3)c(OCc3ccncc3)c2)C(C)C)cc(OC)c1OC (some centres unmarked) [compound 116] | –
21 | 12 nM | C=CCC(OC(=O)[C@@H]1CCCCN1C(=O)C(=O)c1cc(OC)c(OC)c(OC)c1)c1cc(OCc2ccncc2)c(OCc2ccncc2)c(OCc2ccncc2)c1 (some centres unmarked) [compound 118] | –
22 | – | CO[C@H]1C[C@@H]2CC[C@@H](C)[C@@](O)(O2)C(=O)C(=O)N2CCCC[C@H]2C(=O)O[C@H]([C@H](C)C[C@@H]2CC[C@@H](O)[C@H](OC)C2)CC(=O)[C@H](C)/C=C(\C)[C@@H](O)[C@@H](OC)C(=O)[C@H](C)C[C@H](C)/C=C/C=C/C=C/1C [rapamycin] | dissociating FKBP12 from the receptor [1]: capable of dissociating FKBP12 from the receptor; dissociating FKBP12 from the receptor (ryanodine receptor (RyR)): capable of dissociating FKBP12 from the receptor; effect on FK-506 neurotrophic effects in sensory ganglia ([2]; with FK-506): those effects were blocked by rapamycin; effect on FK-506-induced neurite outgrowth ([3]; with FK-506): did not inhibit the effects of FK-506 on neurite outgrowth; neurotrophic effect in combination with FK-506 ([3]; with FK-506): additive effect with FK-506
